Laboratory results reported in patent US11992012B2, “Diaminotriazine compounds” (BASF SE, priority 2018, dated 2024).

How the values were obtained:
Test in all cases: greenhouse pre-emergence herbicidal test
Format in all cases: in vivo
Settings in all cases: 250 g/ha, scale 0 to 100
Amaranthus retroflexus = system: Amaranthus retroflexus
Source text: (§1) The culture containers used were plastic flowerpots containing loamy sand with approximately 3.0% of humus as the substrate. The seeds of the test plants were sown separately for each species.
(§2) For the pre-emergence treatment, the active ingredients, which had been suspended or emulsified in water, were applied directly after sowing by means of finely distributing nozzles. The containers were irrigated gently to promote germination and growth and subsequently covered with transparent plastic hoods until the plants had rooted. This cover caused uniform germination of the test plants, unless this had been impaired by the active ingredients.
(§3) Depending on the species, the plants were kept at 10-25° C. or 20-35° C., respectively.
(§4) The test period extended over 2 to 4 weeks. During this time, the plants were tended, and their response to the individual treatments was evaluated.
(§5) Evaluation was carried out using a scale from 0 to 100. 100 means no emergence of the plants, or complete destruction of at least the aerial moieties, and 0 means no damage, or normal course of growth. A moderate herbicidal activity is given at values of at least 60, a good herbicidal activity is given at values of at least 70, and a very good herbicidal activity is given at values of at least 85.

Echinocloa crus-galli = system: Echinocloa crus-galli
Source text: as §1, §2, §3, §4, §5

Setaria faberi = system: Setaria faberi
Source text: The culture containers used were plastic flowerpots containing loamy sand with approximately 3.0% of humus as the substrate. The seeds of the test plants were sown separately for each species. For the pre-emergence treatment, the active ingredients, which had been suspended or emulsified in water, were applied directly after sowing by means of finely distributing nozzles. The containers were irrigated gently to promote germination and growth and subsequently covered with transparent plastic hoods until the plants had rooted. This cover caused uniform germination of the test plants, unless this had been impaired by the active ingredients. […] The test period extended over 2 to 4 weeks. During this time, the plants were tended, and their response to the individual treatments was evaluated. Evaluation was carried out using a scale from 0 to 100. 100 means no emergence of the plants, or complete destruction of at least the aerial moieties, and 0 means no damage, or normal course of growth.

CCC(C)(F)c1nc(N)nc(Nc2c(F)c(F)cc(F)c2OCc2ccccc2)n1 (stereo not shown) [Example 247]
herbicidal activity (Amaranthus retroflexus): 100% | herbicidal activity (Echinocloa crus-galli): 100% | herbicidal activity (Setaria faberi): 100%

CC(C)c1nc(N)nc(Nc2c(F)cccc2OCc2ccccc2)n1 [Example 194]
herbicidal activity (Echinocloa crus-galli): 100% | herbicidal activity (Setaria faberi): 70%

CCCC(F)c1nc(N)nc(Nc2c(OCc3ccccc3)cc(F)c(F)c2F)n1 (stereo not shown) [Example 169]
herbicidal activity (Amaranthus retroflexus): 80% | herbicidal activity (Setaria faberi): 85%

CC(C)(F)c1nc(N)nc(Nc2c(F)cccc2OCc2csc(Cl)c2)n1 [Example 110]
herbicidal activity (Echinocloa crus-galli): 90% | herbicidal activity (Setaria faberi): 80%

COC(C)(C)c1nc(N)nc(Nc2c(F)c(F)cc(F)c2OCc2ccccc2)n1 [Example 213]
herbicidal activity (Amaranthus retroflexus): 100% | herbicidal activity (Echinocloa crus-galli): 100% | herbicidal activity (Setaria faberi): 100%

COC(C)c1nc(N)nc(Nc2c(F)c(F)cc(F)c2OCc2ccccc2F)n1 (stereo not shown) [Example 240]
herbicidal activity (Amaranthus retroflexus): 100% | herbicidal activity (Echinocloa crus-galli): 90% | herbicidal activity (Setaria faberi): 95%

Nc1nc(Nc2c(F)c(F)cc(F)c2OCc2ccccc2)nc(C2(F)CCCCC2)n1 [Example 256]
herbicidal activity (Amaranthus retroflexus): 100% | herbicidal activity (Echinocloa crus-galli): 100% | herbicidal activity (Setaria faberi): 100%

CC(C)(F)c1nc(N)nc(Nc2c(F)c(Br)cc(Br)c2OCc2ccccc2)n1 [Example 235]
herbicidal activity (Amaranthus retroflexus): 85% | herbicidal activity (Echinocloa crus-galli): 90% | herbicidal activity (Setaria faberi): 100%

COc1c(F)cc(COc2cccc(F)c2Nc2nc(N)nc(C(C)(C)F)n2)cc1F [Example 73]
herbicidal activity (Amaranthus retroflexus): 70% | herbicidal activity (Echinocloa crus-galli): 75%

CC(C)(F)c1nc(N)nc(Nc2c(F)cccc2OCc2ccc(F)cc2)n1 [Example 6]
herbicidal activity (Amaranthus retroflexus): 100% | herbicidal activity (Echinocloa crus-galli): 100% | herbicidal activity (Setaria faberi): 100%

COC(C)c1nc(N)nc(Nc2c(F)c(F)cc(F)c2OCc2ccccc2C)n1 (stereo not shown) [Example 237]
herbicidal activity (Amaranthus retroflexus): 95% | herbicidal activity (Echinocloa crus-galli): 100% | herbicidal activity (Setaria faberi): 95%

CC(C)=C(F)c1nc(N)nc(Nc2c(F)cccc2OCc2ccccc2)n1 [Example 152]
herbicidal activity (Amaranthus retroflexus): 100% | herbicidal activity (Setaria faberi): 90%

CC(C)(F)c1nc(N)nc(Nc2c(OCc3c(F)cccc3Cl)ccc(F)c2F)n1 [Example 176]
herbicidal activity (Amaranthus retroflexus): 80% | herbicidal activity (Echinocloa crus-galli): 100% | herbicidal activity (Setaria faberi): 100%

COc1ccccc1COc1c(F)cc(F)c(F)c1Nc1nc(N)nc(C(C)F)n1 (stereo not shown) [Example 210]
herbicidal activity (Amaranthus retroflexus): 100% | herbicidal activity (Echinocloa crus-galli): 100% | herbicidal activity (Setaria faberi): 100%

CC(C)Oc1cccc(COc2cccc(F)c2Nc2nc(N)nc(C(C)(C)F)n2)c1 [Example 132]
herbicidal activity (Amaranthus retroflexus): 90% | herbicidal activity (Echinocloa crus-galli): 100% | herbicidal activity (Setaria faberi): 90%

CC(C)(F)c1nc(N)nc(Nc2c(F)cccc2OCc2cccc(OC(F)F)c2)n1 [Example 58]
herbicidal activity (Amaranthus retroflexus): 100% | herbicidal activity (Echinocloa crus-galli): 90% | herbicidal activity (Setaria faberi): 100%

CC(C)(F)c1nc(N)nc(Nc2c(F)cccc2OCc2cc(F)cc(F)c2F)n1 [Example 74]
herbicidal activity (Amaranthus retroflexus): 80% | herbicidal activity (Echinocloa crus-galli): 85%

CC(C)(F)c1nc(N)nc(Nc2c(OC(F)(F)c3ccccc3)cc(F)c(F)c2F)n1 [Example 116]
herbicidal activity (Amaranthus retroflexus): 100% | herbicidal activity (Echinocloa crus-galli): 100% | herbicidal activity (Setaria faberi): 100%

COC(C)(C)c1nc(N)nc(Nc2c(F)cccc2OCc2cccc(F)c2)n1 [Example 114]
herbicidal activity (Echinocloa crus-galli): 90% | herbicidal activity (Setaria faberi): 90%

CC(C)(F)c1nc(N)nc(Nc2c(F)ccc(Cl)c2OCc2ccccc2)n1 [Example 148]
herbicidal activity (Amaranthus retroflexus): 100% | herbicidal activity (Echinocloa crus-galli): 100% | herbicidal activity (Setaria faberi): 100%

COc1ccc(COc2c(F)cc(F)c(F)c2Nc2nc(N)nc(C(C)F)n2)cc1 (stereo not shown) [Example 212]
herbicidal activity (Amaranthus retroflexus): 100% | herbicidal activity (Echinocloa crus-galli): 100% | herbicidal activity (Setaria faberi): 100%

COc1cccc(COc2c(F)cc(F)c(F)c2Nc2nc(N)nc(C(C)(C)OC)n2)c1 [Example 215]
herbicidal activity (Amaranthus retroflexus): 100% | herbicidal activity (Echinocloa crus-galli): 98% | herbicidal activity (Setaria faberi): 98%

COC(C)c1nc(N)nc(Nc2c(F)c(F)cc(F)c2OCc2cccc(C)c2)n1 (stereo not shown) [Example 238]
herbicidal activity (Amaranthus retroflexus): 80% | herbicidal activity (Echinocloa crus-galli): 98% | herbicidal activity (Setaria faberi): 100%

CC(F)c1nc(N)nc(Nc2c(F)cccc2OC(F)(F)c2ccccc2)n1 (stereo not shown) [Example 171]
herbicidal activity (Amaranthus retroflexus): 100% | herbicidal activity (Echinocloa crus-galli): 85% | herbicidal activity (Setaria faberi): 100%

CC(C)(F)c1nc(N)nc(Nc2c(OC(F)(F)c3cccc(F)c3)cc(F)c(F)c2F)n1 [Example 129]
herbicidal activity (Amaranthus retroflexus): 100% | herbicidal activity (Echinocloa crus-galli): 100% | herbicidal activity (Setaria faberi): 100%

CC(Oc1cccc(F)c1Nc1nc(N)nc(C(C)(C)F)n1)c1ccccc1 (stereo not shown) [Example 23]
herbicidal activity (Echinocloa crus-galli): 100% | herbicidal activity (Setaria faberi): 75%

COC(C)c1nc(N)nc(Nc2c(F)ccc(F)c2OCc2ccccc2)n1 (stereo not shown) [Example 191]
herbicidal activity (Amaranthus retroflexus): 95% | herbicidal activity (Echinocloa crus-galli): 100% | herbicidal activity (Setaria faberi): 100%

CC1(c2nc(N)nc(Nc3c(F)cccc3OCc3ccccc3)n2)CCC1 [Example 52]
herbicidal activity (Echinocloa crus-galli): 90% | herbicidal activity (Setaria faberi): 85%

CCCC(F)c1nc(N)nc(Nc2c(F)ccc(F)c2OCc2ccccc2)n1 (stereo not shown) [Example 170]
herbicidal activity (Amaranthus retroflexus): 90% | herbicidal activity (Echinocloa crus-galli): 100% | herbicidal activity (Setaria faberi): 90%

CC(F)c1nc(N)nc(Nc2c(F)cccc2OCc2ccccc2)n1 (stereo not shown) [Example 161]
herbicidal activity (Echinocloa crus-galli): 100% | herbicidal activity (Setaria faberi): 100%

COC(C)c1nc(N)nc(Nc2c(F)c(F)cc(F)c2OCc2cccc(F)c2)n1 (stereo not shown) [Example 241]
herbicidal activity (Amaranthus retroflexus): 100% | herbicidal activity (Echinocloa crus-galli): 85% | herbicidal activity (Setaria faberi): 85%

CCc1ccc(COc2c(F)ccc(F)c2Nc2nc(N)nc(C(C)(C)F)n2)cc1 [Example 140]
herbicidal activity (Echinocloa crus-galli): 98% | herbicidal activity (Setaria faberi): 100%

CC(F)c1nc(N)nc(Nc2c(F)c(F)cc(F)c2OCc2ccccc2)n1 (stereo not shown) [Example 209]
herbicidal activity (Amaranthus retroflexus): 100% | herbicidal activity (Echinocloa crus-galli): 100% | herbicidal activity (Setaria faberi): 100%

COC(C)(C)c1nc(N)nc(Nc2c(F)cccc2OC(F)(F)c2ccccc2)n1 [Example 117]
herbicidal activity (Amaranthus retroflexus): 100% | herbicidal activity (Echinocloa crus-galli): 100% | herbicidal activity (Setaria faberi): 100%

Cc1cccc(COc2c(F)cc(F)c(F)c2Nc2nc(N)nc(C(C)F)n2)c1 (stereo not shown) [Example 230]
herbicidal activity (Amaranthus retroflexus): 95% | herbicidal activity (Echinocloa crus-galli): 95% | herbicidal activity (Setaria faberi): 95%

CC(C)(F)c1nc(N)nc(Nc2c(F)ccc(F)c2OCc2ccccc2)n1 [Example 72]
herbicidal activity (Amaranthus retroflexus): 100% | herbicidal activity (Echinocloa crus-galli): 100% | herbicidal activity (Setaria faberi): 100%

CC(C)(F)c1nc(N)nc(Nc2c(OCc3cccc(F)c3)cc(F)c(F)c2F)n1 [Example 97]
herbicidal activity (Amaranthus retroflexus): 100% | herbicidal activity (Echinocloa crus-galli): 100% | herbicidal activity (Setaria faberi): 100%

CC(C)(F)c1nc(N)nc(Nc2c(F)cccc2OCc2nccs2)n1 [Example 36]
herbicidal activity (Amaranthus retroflexus): 100% | herbicidal activity (Echinocloa crus-galli): 75%

COc1ccc(COc2c(F)ccc(F)c2Nc2nc(N)nc(C(C)(C)F)n2)cc1 [Example 192]
herbicidal activity (Echinocloa crus-galli): 100% | herbicidal activity (Setaria faberi): 100%

CC(C)(F)c1nc(N)nc(Nc2c(F)ccc(C#N)c2OCc2ccccc2)n1 [Example 259]
herbicidal activity (Amaranthus retroflexus): 100% | herbicidal activity (Setaria faberi): 100%
